Assay in all cases: Bacterial Assay: Determination of Antibacterial Activity (MIC, broth microdilution or agar dilution)
Common to all, as to assay type: cell-based
(Dilution methods test growth across graded concentrations, often in twofold steps.)

For assay [1], the system named is Clostridium difficile (Isolate ID ATCC 9689). As to conditions: Clostridioides difficile, ATCC9689, 48 h, read-out: C. difficile MIC Activity Range. The method, boiled down:
(§1)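 MICs were set by CLSI broth microdilution or agar dilution for anaerobes, read visually after 48 hours at 37° C. under anaerobic gas packs. Medium was reinforced clostridial medium with 0.1% defibrinated horse blood; values are binned as A ≦1.01, B >1.0-4.0, C >4.0-16 μg/mL.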

The subject of assay [2] is Clostridium difficile (Isolate ID BI-9). As to conditions: Clostridioides difficile, 48 h, read-out: MIC (μg/mL) C. difficile (B-I9). The method, boiled down:
as §1

For assay [3], the system named is Clostridium difficile (Isolate ID 027-01). Particulars: Clostridioides difficile, 48 h, read-out: MIC (μg/mL) C. difficile (027-01). The method, boiled down: as §1

Each structure is given as a SMILES string. In brackets after ≈: the same amount, converted by molar mass.

As for `NC(=O)c1c(F)ccc(OCc2nc(-c3ccc(Cl)cc3)c(Br)o2)c1F` [Compound 104, 3-{[5-bromo-4-(4-chlorophenyl)-1,3-oxazol-2-yl]methoxy}-2,6-difluorobenzamide], the MIC in assay [1] was < 1.01 µg/mL; in assay [2], 0.12 µg/mL (≈ 0.27 µM); in assay [3] it was 0.12 µg/mL (≈ 0.27 µM).

`NC(=O)c1c(F)ccc(OCc2nc(-c3ccc(OC(F)(F)F)cc3)c(Br)s2)c1F` [Compound 105, 3-({5-bromo-4-[4-(trifluoromethoxy)phenyl]-1,3-thiazol-2-yl}methoxy)-2,6-difluorobenzamide]: the MIC is < 1.01 µg/mL in assay [1], 1 µg/mL (≈ 1.96 µM) in assay [2] and 0.5 µg/mL (≈ 0.982 µM) in assay [3].

Turning to `CCCCCCCCCOc1ccc(F)c(/C(N)=N/O)c1F` [Compound 106, 2,6-difluoro-N′-hydroxy-3-(nonyloxy)benzenecarboximidamide], the MIC in assay [1] is < 1.01 µg/mL; in assay [2] it was 0.5 µg/mL (≈ 1.59 µM); in assay [3], 0.5 µg/mL (≈ 1.59 µM).

As for `NC(=O)c1c(F)ccc(OCc2ccn(-c3ccc(OC(F)(F)F)cc3)n2)c1F` [Compound 108, 2,6-difluoro-3-({1-[4-(trifluoromethoxy)phenyl]-1H-pyrazol-3-yl}methoxy)benzamide], the MIC in assay [1] is < 1.01 µg/mL; in assay [2], 0.5 µg/mL (≈ 1.21 µM); in assay [3], 0.5 µg/mL (≈ 1.21 µM).

Regarding `NC(=O)c1c(F)ccc(OCc2nc(-c3ccc(S(F)(F)(F)(F)F)cc3)ns2)c1F` [Compound 110, 2,6-difluoro-3-({3-[4-(pentafluoro-lambda~6~- sulfanyl)phenyl]-1,2,4-thiadiazol-5-yl}methoxy)benzamide], the MIC is < 1.01 µg/mL in assay [1], 0.06 µg/mL (≈ 0.127 µM) in assay [2] and 0.06 µg/mL (≈ 0.127 µM) in assay [3].

With `NC(=O)c1c(F)ccc(OCCc2nc(-c3ccc(OC(F)(F)F)cc3)cs2)c1F` [Compound 111, 2,6-difluoro-3-(2-{4-[4-(trifluoromethoxy)phenyl]-1,3-thiazol-2-yl}ethoxy)benzamide], the MIC in assay [1] is < 1.01 µg/mL; in assay [2], 0.25 µg/mL (≈ 0.563 µM); in assay [3], 0.25 µg/mL (≈ 0.563 µM).

For the compound `NC(=O)c1c(F)ccc(OCc2nc(-c3ccc(S(F)(F)(F)(F)F)cc3)cs2)c1F` [Compound 112, 2,6-difluoro-3-({4-[4-(pentafluoro-lambda~6~- sulfanyl)phenyl]-1,3-thiazol-2-yl}methoxy)benzamide], the MIC is < 1.01 µg/mL in assay [1], 0.12 µg/mL (≈ 0.254 µM) in assay [2] and 0.12 µg/mL (≈ 0.254 µM) in assay [3].

As to `NC(=O)c1c(F)ccc(OCCCOc2ccc(OC(F)(F)F)cc2)c1F` [Compound 126, 2,6-difluoro-3-{3-[4-(trifluoromethoxy)phenoxy]propoxy}benzamide], the results for the MIC in assay [1], in assay [2] and in assay [3] were < 1.01 µg/mL, 0.5 µg/mL (≈ 1.28 µM) and 0.5 µg/mL (≈ 1.28 µM), respectively.

Turning to `NC(=O)c1c(F)ccc(OCCCCOc2ccc(Cl)cc2)c1F` [Compound 127, 3-[4-(4-chlorophenoxy)butoxy]-2,6-difluoro-benzamide], the values for the MIC in assay [1], in assay [2] and in assay [3] were < 1.01 µg/mL, 0.25 µg/mL (≈ 0.703 µM) and 0.25 µg/mL (≈ 0.703 µM), respectively.

For the compound `NC(=O)c1c(F)ccc(OCCCCOc2ccc(OC(F)(F)F)cc2)c1F` [Compound 128, 2,6-difluoro-3-{4-[4-(trifluoromethoxy)phenoxy]butoxy}benzamide], the MIC was < 1.01 µg/mL in assay [1], 0.12 µg/mL (≈ 0.296 µM) in assay [2] and 0.06 µg/mL (≈ 0.148 µM) in assay [3].

Turning to `NC(=O)c1c(F)ccc(OCCCCOc2ccc(C(F)(F)F)cc2)c1F` [Compound 129, 2,6-difluoro-3-{4-[4 (trifluoromethyl)phenoxy]butoxy}benzamide], the MIC in assay [1] was < 1.01 µg/mL; in assay [2], 0.06 µg/mL (≈ 0.154 µM); in assay [3], 0.06 µg/mL (≈ 0.154 µM).

As for `NC(=O)c1c(F)ccc(OCCCCCOc2ccc(Cl)cc2)c1F` [Compound 130, 3-{[5-(4-chlorophenoxy)pentyl]oxy}-2,6-difluorobenzamide], the MIC in assay [1] is < 1.01 µg/mL; in assay [2], 0.5 µg/mL (≈ 1.35 µM); in assay [3], 0.5 µg/mL (≈ 1.35 µM).

Consider `NC(=O)c1c(F)ccc(OCCCCCOc2ccc(OC(F)(F)F)cc2)c1F` [Compound 131, 2,6-difluoro-3-({5-[4-(trifluoromethoxy)phenoxy]pentyl}oxy) benzamide], for which the MIC is < 1.01 µg/mL in assay [1], 0.25 µg/mL (≈ 0.596 µM) in assay [2] and 0.25 µg/mL (≈ 0.596 µM) in assay [3].

In the case of `NC(=O)c1c(F)ccc(OCCCCCOc2ccc(C(F)(F)F)cc2)c1F` [Compound 132, 2,6-difluoro-3-({5-[4 (trifluoromethyl)phenoxy]pentyl}oxy) benzamide], the figures for the MIC in assay [1], in assay [2] and in assay [3] were < 1.01 µg/mL, 0.5 µg/mL (≈ 1.24 µM) and 0.25 µg/mL (≈ 0.62 µM), respectively.

Turning to `NC(=O)c1c(F)ccc(OCCCCCCOc2ccc(Cl)cc2)c1F` [Compound 133, 3-{[6-(4-chlorophenoxy)hexyl]oxy}-2,6-difluorobenzamide], the results for the MIC in assay [1], in assay [2] and in assay [3] were < 1.01 µg/mL, 0.5 µg/mL (≈ 1.3 µM) and 0.5 µg/mL (≈ 1.3 µM), respectively.

For the compound `NC(=O)c1c(F)ccc(OCCCCCCOc2ccc(OC(F)(F)F)cc2)c1F` [Compound 134, 2,6-difluoro-3-({6-[4 (trifluoromethoxy)phenoxy]hexyl}oxy) benzamide], the MIC was < 1.01 µg/mL in assay [1], 0.25 µg/mL (≈ 0.577 µM) in assay [2] and 0.25 µg/mL (≈ 0.577 µM) in assay [3].

On to `NC(=O)c1c(F)ccc(OCCCCCCOc2ccc(C(F)(F)F)cc2)c1F` [Compound 135, 2,6-difluoro-3-({6-[4-(trifluoromethyl)phenoxy]hexyl}oxy)benzamide], for which the values for the MIC in assay [1], in assay [2] and in assay [3] were < 1.01 µg/mL, 0.5 µg/mL (≈ 1.2 µM) and 0.5 µg/mL (≈ 1.2 µM), respectively.

Take `NC(=O)c1c(F)ccc(OCCOCCOc2ccc(Cl)cc2)c1F` [Compound 136, 3-{2-[2-(4-chlorophenoxy)ethoxy]ethoxy}-2,6-difluorobenzamide]: the MIC was 1 to 4 µg/mL (≈ 2.69 to 10.8 µM) in assay [1], 4 µg/mL (≈ 10.8 µM) in assay [2] and 4 µg/mL (≈ 10.8 µM) in assay [3].

As for `CN(CCCCOc1ccc(OC(F)(F)F)cc1)c1ccc(F)c(C(N)=O)c1F` [Compound 152, 2,6-difluoro-3-(methyl{4-[4-(trifluoromethoxy)phenoxy]butyl}amino) benzamide], the MIC is < 1.01 µg/mL in assay [1], 0.5 µg/mL (≈ 1.2 µM) in assay [2] and 0.5 µg/mL (≈ 1.2 µM) in assay [3].

Consider `NC(=O)c1c(F)ccc(OCCCCCc2ccc(C(F)(F)F)cc2)c1F` [Compound 155, 2,6-difluoro-3-({5-[4-(trifluoromethyl)phenyl]pentyl}oxy)benzamide], for which the MIC is < 1.01 µg/mL in assay [1], 0.12 µg/mL (≈ 0.31 µM) in assay [2] and 0.12 µg/mL (≈ 0.31 µM) in assay [3].

For `NC(=O)c1c(F)ccc(OCCCCOc2ccc(S(F)(F)(F)(F)F)cc2)c1F` [Compound 159], the MIC in assay [1] is < 1.01 µg/mL; in assay [2], 0.12 µg/mL (≈ 0.268 µM); in assay [3], 0.12 µg/mL (≈ 0.268 µM).

In the case of `NC(=O)c1c(F)ccc(OCC#CCOc2ccc(OC(F)(F)F)cc2)c1F` [Compound 160, 2,6-difluoro-3-({4-[4-(trifluoromethoxy)phenoxy]but-2-yn-1-yl}oxy)benzamide], the MIC is < 1.01 µg/mL in assay [1], 0.25 µg/mL (≈ 0.623 µM) in assay [2] and 0.25 µg/mL (≈ 0.623 µM) in assay [3].

As to `NC(=O)c1c(F)ccc(OCCOCCOc2ccc(S(F)(F)(F)(F)F)cc2)c1F` [Compound 161, 2,6-difluoro-3-(2-{2-[4-(pentafluoro-lambda~6~-sulfanyl)phenoxy]ethoxy}ethoxy)benzamide], the MIC in assay [1] is < 1.01 µg/mL; in assay [2], 1 µg/mL (≈ 2.16 µM); in assay [3] it was 2 µg/mL (≈ 4.32 µM).

For the compound `Cc1sc(COc2ccc(F)c(C(N)=O)c2F)nc1-c1ccc(Cl)cc1` [Compound 189, 3-{[4-(4-chlorophenyl)-5-methyl-1,3-thiazol-2-yl]methoxy}-2,6-difluorobenzamide], the MIC is < 1.01 µg/mL in assay [1], 1 µg/mL (≈ 2.53 µM) in assay [2] and 1 µg/mL (≈ 2.53 µM) in assay [3].

Regarding `NC(=O)c1c(F)ccc(OCc2ccnc(-c3ccc(Cl)cc3)n2)c1F` [Compound 192, 3-{[2-(4-chlorophenyl)pyrimidin-4-yl]methoxy}-2,6-difluorobenzamide], the MIC in assay [1] is < 1.01 µg/mL; in assay [2] it was 1 µg/mL (≈ 2.66 µM); in assay [3], 1 µg/mL (≈ 2.66 µM).

`NC(=O)c1c(F)ccc(OCc2cccc(-c3ccc(Cl)cc3)n2)c1F` [Compound 194, 3-{[6-(4-chlorophenyl)pyridin-2-yl]methoxy}-2,6-difluorobenzamide]: the MIC in assay [1] is < 1.01 µg/mL; in assay [2] it was 0.5 µg/mL (≈ 1.33 µM); in assay [3], 0.5 µg/mL (≈ 1.33 µM).

`NC(=O)c1c(F)ccc(OCc2nc(C#Cc3cccc(Cl)c3)cs2)c1F` [Compound 198, 3-({4-[(3-chlorophenyl)ethynyl]-1,3-thiazol-2-yl}methoxy)-2,6-difluorobenzamide]: the MIC is < 1.01 µg/mL in assay [1], 0.25 µg/mL (≈ 0.618 µM) in assay [2] and 0.12 µg/mL (≈ 0.296 µM) in assay [3].

Regarding `NC(=O)c1c(F)ccc(OCc2nc(-c3ccc(Cl)s3)cs2)c1F` [Compound 203, 3-{[4-(5-chlorothiophen-2-yl)-1,3-thiazol-2-yl]methoxy}-2,6-difluorobenzamide], the figures for the MIC in assay [1], in assay [2] and in assay [3] were < 1.01 µg/mL, 1 µg/mL (≈ 2.59 µM) and 0.5 µg/mL (≈ 1.29 µM), respectively.

On to `CNC(=N)c1cccc(OCc2nc(-c3ccc(Cl)cc3)ns2)c1F` [Compound 205, 3-{[3-(4-chlorophenyl)-1,2,4-thiadiazol-5-yl]methoxy}-2-fluoro-N-methylbenzenecarboximidamide], for which the MIC in assay [1] was 4 to 16 µg/mL (≈ 10.6 to 42.5 µM); in assay [2], 16 µg/mL (≈ 42.5 µM); in assay [3], 16 µg/mL (≈ 42.5 µM).

In the case of `COc1ncc(-c2csc(COc3ccc(F)c(C(N)=O)c3F)n2)s1` [Compound 207, 2,6-difluoro-3-[(2′-methoxy-4,5′-bi-1,3-thiazol-2-yl)methoxy]benzamide], the figures for the MIC in assay [1], in assay [2] and in assay [3] were 1 to 4 µg/mL (≈ 2.61 to 10.4 µM), 4 µg/mL (≈ 10.4 µM) and 4 µg/mL (≈ 10.4 µM), respectively.

Consider `NC(=O)c1c(F)ccc(OCc2nc(-c3ccc(C(F)(F)F)cc3)c(Br)o2)c1F` [Compound 208, 3-({5-bromo-4-[4-(trifluoromethyl)phenyl]-1,3-oxazol-2-yl}methoxy)-2,6-difluorobenzamide], for which the MIC in assay [1] was < 1.01 µg/mL; in assay [2] it was 0.06 µg/mL (≈ 0.126 µM); in assay [3], 0.06 µg/mL (≈ 0.126 µM).

The values are drawn from US20170305943A1, “COMPOUNDS FOR THE TREATMENT OF BACTERIAL INFECTIONS” (priority 2014, published 2017).
